Test results as given in US20230219886A1, “NOVEL SELENO-NSAID ANALOGS AND USES THEREOF” (THE PENN STATE RESEARCH FOUNDATION, priority 2020, published 2023).
Like-named read-outs stand apart in the source and are kept apart here.

How the values were obtained:
p21 = experiment: Western blot protein expression, p21; format: cell-based, human; settings: HT-29, IC50 dose, 12 h and 24 h
Experimental: (§1) Protein Expression Analysis. Western Blot was performed to assess the expression level of different proteins before and after treatment. In brief, HT-29 cells were treated with the compound for different time intervals and the whole-cell lysates were made by lysing cells using RIPA buffer (Thermo Scientific, USA). Protease (Roche, USA) and phosphatase inhibitor cocktails (Sigma-Aldrich, USA) were used to prevent the degradation of the proteins present in the lysate. The resulting lysates were incubated on ice for 30 min and spun at 10,000 rpm for 15 min to pellet down cell debris. The total protein concentration was determined using Bradford assay (Thermo Scientific, USA). Equal amounts of cell lysates were resolved using NuPAGE gel 4-12% (Life Technologies, Carlsbad, Calif.). The resolved proteins were electro-transferred to a PVDF membrane and different antibodies were used to probe the protein expression levels. Enhanced Chemiluminescent reagent (Life technologies, USA) was used to detect the protein of interest.
(§2) To further explore the underlying mechanism of the cell cycle arrest, we studied the expression levels of the different proteins involved in the cell cycle regulation. […] At both time intervals of 12 h and 24 h, the expression levels of cell cycle regulatory proteins cyclin E1 and cyclin B1 were inhibited while p21 was induced (FIG. 7B).

HT-29 (CRC) = experiment: MTT cell viability assay, HT-29; settings: for CC50: read-out: LC50; for cell viability: 48 h
Experimental: (§3) Cell Culture Conditions. The cell lines were obtained from the American Type Culture Collection (ATCC). PANC-1 and Caco-2 cell lines were maintained in DMEM medium (Gibco); HT-29, HCT-116 and RKO cells were maintained in McCoy's 5A medium (Gibco); and DU-145 and H1299 cells were maintained in RPMI 1640 medium (Gibco), supplemented with 10% fetal bovine serum (FBS; Gibco) and 1% antibiotics (10.00 units/mL penicillin and 10.00 mg/mL streptomycin; Gibco). Cells were preserved in tissue culture flasks at 37° C. and 5% CO2. Culture medium was replaced every three days.
(§4) Cell Viability Assay. The effect of each compound on cell viability was tested using the MTT assay (81). Briefly, 9000 cells/well were grown in 96-well plates for 12 h. Then these cells were incubated with either DMSO (control) or nine different concentration between 0.01-50 μM of the test compounds for 24, 48, and 72 h. Three hours before the termination point, 20 μL of MTT were added to measure cellular viability. The resultant formazan crystals were dissolved in 50 μL of DMSO, and absorbance was measured at 570 nm and 630 nm wavelengths. IC50, GI50, TGI and LC50 values were calculated using OriginPro 8.5.1.
(§5) Evaluation of the antiproliferative activities of the novel molecules. […] These four cell lines were treated with each compound at three concentrations (5, 25 and 50 μM) for 48 h.

HCT-116 CRC cells = experiment: MTT cell viability assay, HCT-116; format: cell-based, human; settings: read-out: IC50
Experimental: as §3, §4

[1] = test system: PANC-1 (pancreatic carcinoma); experiment: MTT cell viability assay, Panc-1; settings: for cell viability: 48 h
Experimental: as §3, §4, §5

H1299 (lung carcinoma) = experiment: MTT cell viability assay, H1299; settings: for cell viability: 48 h
Experimental: as §3, §4, §5

HT-29 cells [2] = experiment: Cell cycle analysis by flow cytometry; format: cell-based, human; settings: HT-29, 24 h; for population of cells in the S-phase: compared with vehicle; for population of cells in G1 and G2/M phases: compared with vehicle (DMSO)
Experimental: Cell Cycle Analysis. Cell cycle analyses were determined by following a flow cytometry protocol as described earlier (82). In brief, HT-29 cells were serum deprived for 72 hours to get them synchronized. At the end of 72 hours, cells were supplied with fresh medium or fresh medium with 1, 2.5, 5 and 10 μM of 1a and 6a for 24 hours. After each time point, the cells were fixed in ice cold 70% ethanol. Fixed cells were washed with 1×PBS and suspended in PI staining solution. PI staining solution was made by adding 0.1% (v/v) triton X-100, 20 mg of DNase-free RNase A, and 2 mg of PI in 100 mL of PBS. After staining for 15 min, the cells were analyzed by flow cytometer (Coulter Epics XL, Beckman Coulter).
Compounds 1a and 6a inhibited CRC cell growth by inducing cell cycle arrest. We investigated the effect 1a and 6a on the cell cycle by flow cytometry.

Cyclin B1 = experiment: Western blot protein expression, Cyclin B1; format: cell-based, human; settings: HT-29, IC50 dose, 12 h and 24 h
Experimental: as §1, §2

HT-29 cells [3] = experiment: Caspase 3/7 assay; format: cell-based, human; settings: HT29, 5 μM
Experimental: (§6) Apoptosis assay. Induction of apoptosis after the treatment with compounds 1a and 6a were analyzed using Annexin V & Dead cell assay kit and Caspase 3/7 Assay kit (EMD Millipore, Billercia, Mass.) using Muse cell analyzer following manufacturer's protocol. Briefly, the HT-29 cells were plated in triplicates in a six-well plate at densities of 1×10^5 cells/well. Following day, the cells were treated with the compounds 1a and 6a and incubated for 48 h. At the end of the treatment duration, the cells were prepared following manufacturer's guidelines and the data were acquired using Muse 1.4 software.
(§7) Compounds 1a and 6a induced apoptosis in CRC cells. We further investigated whether the inhibition of cell cycle leads to apoptosis. In pursuit of this, HT29 cells were treated with 5 μM of the compounds 1a and 6a for indicated time intervals. Apoptosis was measured by using Annexin V & Dead cell assay kit and Caspase 3/7 Assay kit using Muse cell analyzer following manufacturer's protocol. The live cell population resided in the lower left quadrant and they start shifting towards the lower right quadrant (early apoptotic) or to upper right quadrant (late apoptotic/dead) after treatments. […] A similar trend was also observed after 6a treatment where the live cell population were decreased from <75% to <65% after 12 h and 24 h treatment, respectively.

Cyclin E1 = experiment: Western blot protein expression, Cyclin E1; format: cell-based, human; settings: HT-29, IC50 dose, 12 h and 24 h
Experimental: as §1, §2

HT-29 cells [4] = experiment: Annexin V & Dead cell apoptosis assay; format: cell-based, human; settings: HT29, 5 μM, 12 h
Experimental: as §6, §7

[5] = test system: DU-145 (prostate carcinoma); experiment: MTT cell viability assay, DU-145; settings: for cell viability: 48 h
Experimental: as §3, §4, §5

[6] = Homo sapiens, HT-29, 48 h, read-out: cell viability
[7] = Homo sapiens, PANC-1, 48 h, read-out: cell viability
[8] = Homo sapiens, NCI-H1299, 48 h, read-out: cell viability
[9] = Homo sapiens, DU-145, 48 h, read-out: cell viability

C[Se]C(=O)c1ccccc1OC(C)=O [Compound 1a, 2-((methylselanyl)carbonyl)phenyl acetate]
expression level of p21 (p21): sharp increase
increase on cytotoxic potency compared with parent NSAID scaffolds (HT-29 (CRC)): three-fold
TGI (HT-29 (CRC); HT-29, 24 h): 0.5 ± 0.3 µM
TGI (HT-29 (CRC); HT-29, 48 h): 0.2 ± 0.1 µM
TGI (HT-29 (CRC); HT-29, 72 h): 0.7 ± 0.3 µM
GI50 (HT-29 (CRC); Homo sapiens, HT-29, 24 h): 0.1 ± 0.1 µM
IC50 (HT-29 (CRC); Homo sapiens, HT-29, 24 h): 1.9 ± 0.6 µM
CC50 (HT-29 (CRC); Homo sapiens, HT-29, 24 h): 1.7 ± 1.6 µM
GI50 (HT-29 (CRC); Homo sapiens, HT-29, 48 h): 0.1 ± 0.1 µM
IC50 (HT-29 (CRC); Homo sapiens, HT-29, 48 h): 1.2 ± 0.1 µM
CC50 (HT-29 (CRC); Homo sapiens, HT-29, 48 h): 0.7 ± 0.1 µM
viability at 5 µM (HT-29 (CRC); [6]): 20.8 ± 5.6%
viability at 25 µM (HT-29 (CRC); [6]): 18.5 ± 4.1%
viability at 50 µM (HT-29 (CRC); [6]): 17.7 ± 12.6%
GI50 (HT-29 (CRC); Homo sapiens, HT-29, 72 h): 0.2 ± 0.1 µM
IC50 (HT-29 (CRC); Homo sapiens, HT-29, 72 h): 1.2 ± 0.4 µM
CC50 (HT-29 (CRC); Homo sapiens, HT-29, 72 h): 2.5 ± 1.4 µM
cytotoxicity at 5 µM (HT-29 (CRC); Homo sapiens, HT-29, read-out: inhibition in cell viability): 75 to 80%
IC50 (HCT-116 CRC cells; Homo sapiens, HCT-116, 24 h): > 50 µM
IC50 (HCT-116 CRC cells; Homo sapiens, HCT-116, 48 h): 2.2 ± 0.3 µM
IC50 (HCT-116 CRC cells; Homo sapiens, HCT-116, 72 h): 1 ± 0.2 µM
viability at 5 µM [1, 7]: 43.7 ± 12.1%
viability at 25 µM [1, 7]: 36.9 ± 6.3%
viability at 50 µM [1, 7]: 36.8 ± 6.8%
viability at 5 µM (H1299 (lung carcinoma); [8]): 48.7 ± 5%
viability at 25 µM (H1299 (lung carcinoma); [8]): 41.6 ± 7.2%
viability at 50 µM (H1299 (lung carcinoma); [8]): 31.4 ± 7.7%
population of cells in the S-phase (HT-29 cells [2]): drastically reduced
population of cells in G1 and G2/M phases (HT-29 cells [2]): increase
expression level of Cyclin B1 (Cyclin B1): went down substantially
apoptotic cell population (HT-29 cells [3]): time dependent increase
expression level of Cyclin E1 (Cyclin E1): went down substantially
live cells (HT-29 cells [4]): < 76%
viability at 5 µM [5, 9]: 43.2 ± 1.8%
viability at 25 µM [5, 9]: 35.9 ± 7%
viability at 50 µM [5, 9]: 36.5 ± 6.7%

C[Se]C(=O)CC1=C(C)/C(=C/c2ccc([S+](C)[O-])cc2)c2ccc(F)cc21 (centres unmarked) [Compound 6a, Se-methyl (Z)-2-(5-fluoro-2-methyl-1-(4-(methylsulfinyl)benzylidene)-1H-indenyl)ethaneselenoate]
expression level of p21 (p21): sharp increase
increase on cytotoxic potency compared with parent NSAID scaffolds (HT-29 (CRC); HT-29): three-fold
cell viability (HT-29 (CRC); HT-29, 5 μM): 22.9 ± 2.9%
cell viability (HT-29 (CRC); HT-29, 25 μM): 11.9 ± 6.6%
cell viability (HT-29 (CRC); HT-29, 50 μM): 11.1 ± 6.2%
GI50 (HT-29 (CRC); HT-29, 24 h): 1.2 ± 1.1 µM
IC50 (HT-29 (CRC); HT-29, 24 h): 2.4 ± 0.3 µM
TGI (HT-29 (CRC); HT-29, 24 h): 9.9 ± 3.9 µM
GI50 (HT-29 (CRC); HT-29, 48 h): 1.4 ± 0.7 µM
IC50 (HT-29 (CRC); HT-29, 48 h): 2 ± 0.7 µM
TGI (HT-29 (CRC); HT-29, 48 h): 3.3 ± 0.3 µM
GI50 (HT-29 (CRC); HT-29, 72 h): 0.5 ± 0.5 µM
IC50 (HT-29 (CRC); HT-29, 72 h): 1.4 ± 0.3 µM
TGI (HT-29 (CRC); HT-29, 72 h): 2.4 ± 0.4 µM
CC50 (HT-29 (CRC); HT-29, 24 h): > 50 µM
CC50 (HT-29 (CRC); HT-29, 48 h): 10.1 ± 5.2 µM
CC50 (HT-29 (CRC); HT-29, 72 h): 6.3 ± 0.7 µM
IC50 (HCT-116 CRC cells; HCT-116, 24 h): 7.3 ± 2.3 µM
IC50 (HCT-116 CRC cells; HCT-116, 48 h): 3.2 ± 0.7 µM
IC50 (HCT-116 CRC cells; HCT-116, 72 h): 1.8 ± 0.6 µM
cell viability ([1]; Panc-1, 5 μM): 49.4 ± 20.1%
cell viability ([1]; Panc-1, 25 μM): 29.0 ± 9.5%
cell viability ([1]; Panc-1, 50 μM): 21.3 ± 9.2%
cell viability (H1299 (lung carcinoma); H1299, 5 μM): 53.4 ± 20.2%
cell viability (H1299 (lung carcinoma); H1299, 25 μM): 41.9 ± 14.9%
cell viability (H1299 (lung carcinoma); H1299, 50 μM): 31.3 ± 6.4%
population of cells in the S-phase (HT-29 cells [2]): drastically reduced
population of cells in G1 and G2/M phases (HT-29 cells [2]): increase
expression level of Cyclin B1 (Cyclin B1): went down substantially
apoptotic cell population (HT-29 cells [3]): time dependent increase
expression level of Cyclin E1 (Cyclin E1): went down substantially
live cells (HT-29 cells [4]): < 75%
cell viability ([5]; DU145, 5 μM): 60.1 ± 2.2%
cell viability ([5]; DU145, 25 μM): 44.9 ± 2.4%
cell viability ([5]; DU145, 50 μM): 52.5 ± 2.9%
